{
  "source": "patent US20070253994A1",
  "about": "“Intraspinal Drug Delivery Methods and Devices To Alleviate Chronic Pelvic Pain” (Medtronic, Inc., priority 2006, published 2007)",
  "key": {"[1]": {"tested_on": "micturition reflex of female rats", "test": "micturition reflex (cystometrogram) of female rats in the interstitial cystitis (IC) model of visceral pain, acetic acid bladder infusion", "assay_type": "in vivo, rat", "conditions": "for frequency of acetic-acid-induced contractions compared with rate during saline infusion, both doses: both doses of Table 1"}, "[2]": {"tested_on": "patients with chronic nonbacterial prostatitis", "conditions": "typically orally administered; cited from earlier work"}, "[3]": {"conditions": "female rats, acetic acid infusion, intrathecal, doses of Table 1"}, "[4]": {"conditions": "urethane-anesthetized female rats, 0.5% acetic acid bladder infusion, intrathecal, two ascending doses (Table 1)"}},
  "note": "“Also recorded” adds a separate entry of the source. Structures can show the parent of a compound that is named as a salt.",
  "data": [
    {"compound": "NCC(CC(=O)O)c1ccc(Cl)cc1", "note": "(stereo not drawn) [Baclofen]", "values": [
      {"measurement": "amplitude of bladder contractions", "setting": "[1]; [3]", "result": "Neither baclofen nor ketorolac reduced the amplitude of bladder contraction"},
      {"measurement": "frequency of acetic-acid-induced contractions compared with rate during saline infusion, both doses", "setting": "[1]; female rats, intrathecal", "result": "reduced the acetic-acid-induced contraction frequency in a dose-dependent manner without suppressing it below the normal rate of contraction observed with saline infusion"},
      {"measurement": "micturition reflex frequency", "setting": "[1]; [4]", "result": "statistically significant only at the higher dose"},
      {"measurement": "micturition reflex frequency", "setting": "[1]; urethane-anesthetized female rats, 0.5% acetic acid bladder infusion, intrathecal, two ascending doses (Table 1), listed as baclofen", "result": "suppressed micturition reflex frequency in a dose-dependent fashion"}
    ]},
    {"compound": "CCCCN1CCCCC1C(=O)Nc1c(C)cccc1C", "note": "(stereo not drawn) [Bupivacaine, Bupivacaine HCl]", "values": [
      {"measurement": "amplitude of bladder contractions", "setting": "[1]; [3]", "result": "no effect on the amplitude of contraction"},
      {"measurement": "frequency of acetic-acid-induced contractions compared with rate during saline infusion, both doses", "setting": "[1]; female rats, intrathecal", "result": "reduced the frequency of acetic-acid-induced contractions below the rate observed during saline infusion"},
      {"measurement": "micturition reflex frequency", "setting": "[1]; urethane-anesthetized female rats, 0.5% acetic acid bladder infusion, intrathecal, two ascending doses (Table 1), HCl", "result": "suppressed micturition reflex frequency in a dose-dependent fashion; also recorded: appeared to suppress the micturition frequency at both doses"}
    ]},
    {"compound": "Clc1cccc(Cl)c1N=C1NCCN1", "note": "[Clonidine, Clonidine HCl]", "values": [
      {"measurement": "micturition reflex frequency", "setting": "[1]; [4]", "result": "no measurable effect"}
    ]},
    {"compound": "CNCCCN1c2ccccc2CCc2ccccc21", "note": "[Desipramine, Desipramine HCl]", "values": [
      {"measurement": "amplitude of bladder contractions", "setting": "[1]; [3]", "result": "Neither of these drugs suppressed the amplitude of bladder contractions"},
      {"measurement": "micturition reflex frequency at the higher dose", "setting": "[1]; female rats, acetic acid infusion, intrathecal, higher dose of Table 1", "result": "effective at reducing the reflex frequency"},
      {"measurement": "micturition reflex frequency at the lower dose", "setting": "[1]; female rats, acetic acid infusion, intrathecal, lower dose of Table 1", "result": "not at the lower dose"},
      {"measurement": "frequency of acetic-acid-induced bladder contractions compared with frequency during saline infusion, higher dose", "setting": "[1]; female rats, intrathecal, higher dose of Table 1", "result": "reduced the frequency of acetic-acid-induced bladder contractions to a level comparable to the normal frequency of contraction seen with saline infusion"},
      {"measurement": "micturition reflex frequency", "setting": "[1]; [4]", "result": "suppressed micturition reflex frequency in a dose-dependent fashion"}
    ]},
    {"compound": "NCC1(CC(=O)O)CCCCC1", "note": "[Gabapentin]", "values": [
      {"measurement": "amplitude of bladder contractions", "setting": "[1]; rat, in vivo", "result": "Neither of these drugs suppressed the amplitude of bladder contractions"},
      {"measurement": "frequency of acetic-acid-induced bladder contractions compared with frequency during saline infusion, higher dose", "setting": "[1]; rat, in vivo", "result": "reduced the frequency of acetic-acid-induced bladder contractions to a level comparable to the normal frequency of contraction seen with saline infusion"},
      {"measurement": "micturition reflex frequency", "setting": "[1]; rat, in vivo", "result": "suppressed micturition reflex frequency in a dose-dependent fashion"},
      {"measurement": "micturition reflex frequency at the higher dose", "setting": "[1]; rat, in vivo", "result": "effective at reducing the reflex frequency"},
      {"measurement": "micturition reflex frequency at the lower dose", "setting": "[1]; rat, in vivo", "result": "not at the lower dose"}
    ]},
    {"compound": "O=C(c1ccccc1)c1ccc2n1CCC2C(=O)O", "note": "(stereo not drawn) [Ketorolac, Ketorolac tris]", "values": [
      {"measurement": "rats exhibiting a lower reflex frequency, lower dose", "setting": "[1]; 10 rats, intrathecal, lower dose (100 μg per Table 1)", "result": "8 of 10"},
      {"measurement": "amplitude of bladder contractions", "setting": "[1]; [3]", "result": "Neither baclofen nor ketorolac reduced the amplitude of bladder contraction"},
      {"measurement": "frequency of acetic-acid-induced contractions compared with rate during saline infusion, both doses", "setting": "[1]; female rats, intrathecal", "result": "reduced the acetic-acid-induced contraction frequency in a dose-dependent manner without suppressing it below the normal rate of contraction observed with saline infusion"},
      {"measurement": "rats in which reflex frequency was reduced, high dose", "setting": "[1]; ten rats tested, intrathecal, high dose (500 μg per Table 1)", "result": "each of the ten rats tested"},
      {"measurement": "micturition reflex frequency", "setting": "[1]; [4]", "result": "suppressed micturition reflex frequency in a dose-dependent fashion"}
    ]},
    {"compound": "pentosan polysulfate", "values": [
      {"measurement": "patients for whom treatment proved successful", "setting": "[2]", "result": "approximately 40%"}
    ]}
  ]
}
